Measurements reported in US11596639B2, “Substituted indole Mcl-1 inhibitors” (Vanderbilt University, priority 2016, dated 2023).
Like-named read-outs stand apart in the source and are kept apart here.

Assays:
Mcl-1 = Mcl-1 (Homo sapiens (Human), UniProt Q07820); test: Fluorescence polarization anisotropy (FPA) competition assay, FITC-Bak or FITC-Bim BH3 peptide; assay type: binding; conditions: read-out: Ki for Inhibition of Mcl-1 by FPA assay
[1] = test system: H929 human cancer cell lines; test: Cellular viability / proliferation (Cell TiterGlo, 72 h); assay type: cell-based
In short: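 1,000 cells/well, 10% FBS medium; compound added at 24 h, 2-fold dilutions from 50 μM top, DMSO <1% final. 72 h exposure, CellTiterGlo 30 min RT dark, luminescence read. IC50 by 4-parameter fit.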

[2] = Homo sapiens, NCI-H929, 72 h, read-out: GI50 on cellular proliferation of H929 human cancer cell lines, H929 cells, 72 h, Cell TiterGlo, 10% FBS

Chain of Mcl-1 (Q07820 172-327): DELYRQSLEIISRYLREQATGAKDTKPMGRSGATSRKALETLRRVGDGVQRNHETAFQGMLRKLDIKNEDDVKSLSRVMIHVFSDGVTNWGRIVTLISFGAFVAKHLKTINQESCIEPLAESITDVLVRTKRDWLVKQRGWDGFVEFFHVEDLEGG

Row | Compound | Ki (Mcl-1) [nM] | GI50 [1, 2] [nM] | GI50 ([1]; H929 cells, 72 h, Cell TiterGlo, 10% FBS, read-out: GI50 on cellular proliferation of H929 human cancer cell lines) [nM]
1 | Cc1cc(OCCCc2c3n(c4c(-c5c(C)nn(C)c5C)c(Cl)ccc24)[C@H](C)CN(c2cn(C)c4cc(Cl)c(C(=O)O)cc24)C3=O)cc(C)c1Cl [Example 365, (R)-6-Chloro-3-(7-chloro-10-(3-(4-chloro-3,5-dimethylphenoxy)propyl)-4-methyl-1-oxo-6-(1,3,5-trimethyl-1H-pyrazol-4-yl)-3,4-dihydropyrazino[1,2-a]indol-2(1H)-yl)-1-methyl-1H-indole-5-carboxylic acid] | 1.7 | 2000 | 
2 | Cc1cc(OCCCc2c3n(c4c(-c5c(C)nn(C)c5C)c(Cl)ccc24)[C@H](C)CN(c2cc(C(=O)O)c4cnn(CCN5CCOCC5)c4c2)C3=O)cc(C)c1Cl [Example 56, (R)-6-(7-chloro-10-(3-(4-chloro-3,5-dimethylphenoxy)propyl)-4-methyl-1-oxo-6-(1,3,5-trimethyl-1H-pyrazol-4-yl)-3,4-dihydropyrazino[1,2-a]indol-2(1H)-yl)-1-(2-morpholinoethyl)-1H-indazole-4-carboxylic acid] | < 1 | 810 | 
3 | Cc1cccnc1Cn1c(C(=O)O)cc2cccc(N3C[C@@H](C)n4c(c(CCCOc5cc(C)c(Cl)c(C)c5)c5ccc(Cl)c(-c6c(C)nn(C)c6C)c54)C3=O)c21 [Example 387, (R)-7-(7-Chloro-10-(3-(4-chloro-3,5-dimethylphenoxy)propyl)-4-methyl-1-oxo-6-(1,3,5-trimethyl-1H-pyrazol-4-yl)-3,4-dihydropyrazino[1,2-a]indol-2(1H)-yl)-1-((3-methylpyridin-2-yl)methyl)-1H-indole-2-carboxylic acid] | 2.1 | 3600 | 
4 | Cc1cc(OCCCc2c3n(c4c(-c5c(C)nn(C)c5C)c(Cl)ccc24)[C@H](C)CN(c2cc(C(=O)O)c4cn(CCN5CCOCC5)nc4c2)C3=O)cc(C)c1Cl [Example 57, (R)-6-(7-chloro-10-(3-(4-chloro-3,5-dimethylphenoxy)propyl)-4-methyl-1-oxo-6-(1,3,5-trimethyl-1H-pyrazol-4-yl)-3,4-dihydropyrazino[1,2-a]indol-2(1H)-yl)-2-(2-morpholinoethyl)-2H-indazole-4-carboxylic acid] | < 1 | 1700 | 
5 | Cc1cc(OCCCc2c3n(c4c(-c5c(C)nn(C)c5C)c(Cl)ccc24)[C@H](C)CN(c2cn(C)c4c(C(=O)O)cccc24)C3=O)cc(C)c1Cl [Example 75, (R)-3-(7-Chloro-10-(3-(4-chloro-3,5-dimethylphenoxy)propyl)-4-methyl-1-oxo-6-(1,3,5-trimethyl-1H-pyrazol-4-yl)-3,4-dihydropyrazino[1,2-a]indol-2(1H)-yl)-1-methyl-1H-indole-7-carboxylic acid] | < 1 | 1100 | 
6 | Cc1cc(OCCCc2c3n(c4c(-c5c(C)nn(C)c5C)c(Cl)ccc24)CCCN(c2cc(C(=O)O)c4cnn(CCN5CCOCC5)c4c2)C3=O)cc(C)c1Cl [Example 14, 6-[8-Chloro-11-[3-(4-chloro-3,5-dimethyl-phenoxy)propyl]-1-oxo-7-(1,3,5-trimethylpyrazol-4-yl)-4,5-dihydro-3H-[1,4]diazepino[1,2-a]indol-2-yl]-1-(2-morpholinoethyl)indazole-4-carboxylic acid] | < 1 | 3200 | 
7 | Cc1cc(OCCCc2c3n(c4c(-c5c(C)nn(C)c5C)c(Cl)ccc24)CCCN(c2cc(C(=O)O)c4ccn(CCN5CCOCC5)c4c2)C3=O)cc(C)c1Cl [Example 31, 6-(8-chloro-11-(3-(4-chloro-3,5-dimethylphenoxy)propyl)-1-oxo-7-(1,3,5-trimethyl-1H-pyrazol-4-yl)-4,5-dihydro-1H-[1,4]diazepino[1,2-a]indol-2(3H)-yl)-1-(2-morpholinoethyl)-1H-indole-4-carboxylic acid] | < 1 | 1800 | 
8 | Cc1cnc(-c2ccc3c(c2)c(N2C[C@@H](C)n4c(c(CCCOc5cc(C)c(Cl)c(C)c5)c5ccc(Cl)c(-c6c(C)nn(C)c6C)c54)C2=O)cn3C)nc1 [Example 450, (R)-7-Chloro-10-(3-(4-chloro-3,5-dimethylphenoxy)propyl)-4-methyl-2-(1-methyl-5-(5-methylpyrimidin-2-yl)-1H-indol-3-yl)-6-(1,3,5-trimethyl-1H-pyrazol-4-yl)-3,4-dihydropyrazino[1,2-a]indol-1(2H)-one] | 2.2 | 1100 | 
9 | Cc1cc(N2C[C@@H](C)n3c(c(CCCOc4cc(C)c(Cl)c(C)c4)c4ccc(Cl)c(-c5c(C)ncnc5C)c43)C2=O)c2c(c1)cc(C(N)=O)n2C [Example 376, (R)-7-(7-Chloro-10-(3-(4-chloro-3,5-dimethylphenoxy)propyl)-6-(4,6-dimethylpyrimidin-5-yl)-4-methyl-1-oxo-3,4-dihydropyrazino[1,2-a]indol-2(1H)-yl)-1,5-dimethyl-1H-indole-2-carboxamide] | 6.5 | 750 | 
10 | Cc1cc(OCCCc2c3n(c4c(-c5c(C)nn(C)c5C)c(Cl)ccc24)[C@H](C)CN(c2cccc4c(C(=O)O)cn(Cc5ccncc5)c24)C3=O)cc(C)c1Cl [Example 472, (R)-7-(7-Chloro-10-(3-(4-chloro-3,5-dimethylphenoxy)propyl)-4-methyl-1-oxo-6-(1,3,5-trimethyl-1H-pyrazol-4-yl)-3,4-dihydropyrazino[1,2-a]indol-2(1H)-yl)-1-(pyridin-4-ylmethyl)-1H-indole-3-carboxylic acid] | 1.2 | 1700 | 
11 | Cc1cc(OCCCc2c3n(c4c(-c5c(C)nn(C)c5C)c(Cl)ccc24)[C@H](C)CN(c2cn(C)c4ccc(C(=O)Nc5cccnc5)cc24)C3=O)cc(C)c1Cl [Example 291, 3-[(4R)-7-chloro-10-[3-(4-chloro-3,5-dimethyl-phenoxy)propyl]-4-methyl-1-oxo-6-(1,3,5-trimethylpyrazol-4-yl)-3,4-dihydropyrazino[1,2-a]indol-2-yl]-1-methyl-N-(3-pyridyl)indole-5-carboxamide] | 1.1 | 1000 | 
12 | Cc1cc(OCCCc2c3n(c4c(-c5c(C)nn(CC6CCN(C)C6)c5C)c(Cl)ccc24)[C@H](C)CN(c2cn(C)c4ccc(C(=O)O)cc24)C3=O)cc(C)c1Cl (stereo partly drawn) [Example 261, 3-((4R)-7-chloro-10-(3-(4-chloro-3,5-dimethylphenoxy)propyl)-6-(3,5-dimethyl-1-((1-methylpyrrolidin-3-yl)methyl)-1H-pyrazol-4-yl)-4-methyl-1-oxo-3,4-dihydropyrazino[1,2-a]indol-2(1H)-yl)-1-methyl-1H-indole-5-carboxylic acid] | < 1 | 530 | 
13 | Cc1cc(OCCCc2c3n(c4c(-c5c(C)nn(C)c5C)c(Cl)ccc24)[C@H](C)CN(c2cccc4cc5n(c24)CCN(C)C5=O)C3=O)cc(C)c1Cl [Example 226, (4R)-7-chloro-10-[3-(4-chloro-3,5-dimethyl-phenoxy)propyl]-4-methyl-2-(2-methyl-1-oxo-3,4-dihydropyrazino[1,2-a]indol-6-yl)-6-(1,3,5-trimethylpyrazol-4-yl)-3,4-dihydropyrazino[1,2-a]indol-1-one] | 4.9 | 2600 | 
14 | Cc1cc(OCCCc2c3n(c4c(-c5c(C)nn(C)c5C)c(Cl)ccc24)[C@H](C)CN(c2ccc(OCc4ccccc4)c4c2cc(C(=O)O)n4C)C3=O)cc(C)c1Cl [Example 312, (M, R)-7-(benzyloxy)-4-(7-chloro-10-(3-(4-chloro-3,5-dimethylphenoxy)propyl)-4-methyl-1-oxo-6-(1,3,5-trimethyl-1H-pyrazol-4-yl)-3,4-dihydropyrazino[1,2-a]indol-2(1H)-yl)-1-methyl-1H-indole-2-carboxylic acid] | 1.9 |  | 5700
15 | Cc1cc(OCCCc2c3n(c4c(-c5c(C)nn(C)c5C)c(Cl)ccc24)CCCN(c2nc(C(=O)O)n[nH]2)C3=O)cc(C)c1Cl [Example 37, 5-(8-Chloro-11-(3-(4-chloro-3,5-dimethylphenoxy)propyl)-1-oxo-7-(1,3,5-trimethyl-1H-pyrazol-4-yl)-4,5-dihydro-1H-[1,4]diazepino[1,2-a]indol-2(3H)-yl)-1H-1,2,4-triazole-3-carboxylic acid] | 3 | 1800 | 
16 | Cc1cc(OCCCc2c3n(c4c(-c5c(C)nn(CC6CCOCC6)c5C)c(Cl)ccc24)[C@H](C)CN(c2cccc4c(C(=O)O)cn(C)c24)C3=O)cc(C)c1Cl [Example 128, (R)-7-(7-chloro-10-(3-(4-chloro-3,5-dimethylphenoxy)propyl)-6-(3,5-dimethyl-1-((tetrahydro-2H-pyran-4-yl)methyl)-1H-pyrazol-4-yl)-4-methyl-1-oxo-3,4-dihydropyrazino[1,2-a]indol-2(1H)-yl)-1-methyl-1H-indole-3-carboxylic acid] | < 1 | 410 | 
17 | COc1cc(C(=O)O)cc(N2CCCn3c(c(CCCOc4cc(C)c(Cl)c(C)c4)c4ccc(Cl)c(-c5c(C)nn(C)c5C)c43)C2=O)c1OCCc1ccccc1 [Example 66, 3-[8-Chloro-11-[3-(4-chloro-3,5-dimethyl-phenoxy)propyl]-1-oxo-7-(1,3,5-trimethylpyrazol-4-yl)-4,5-dihydro-3H-[1,4]diazepino[1,2-a]indol-2-yl]-5-methoxy-4-(2-phenylethoxy)benzoic acid] | 4.3 | 6400 | 
18 | Cc1cc(OCCCc2c3n(c4c(-c5c(C)nn(C)c5C)c(Cl)ccc24)[C@H](C)CN(c2cn(C)c4ccc([N+](=O)[O-])cc24)C3=O)cc(C)c1Cl [Example 223, (4R)-7-chloro-10-[3-(4-chloro-3,5-dimethyl-phenoxy)propyl]-4-methyl-2-(1-methyl-5-nitro-indol-3-yl)-6-(1,3,5-trimethylpyrazol-4-yl)-3,4-dihydropyrazino[1,2-a]indol-1-one] | 1.1 | 5000 | 
